{"source": "patent US7947458B1", "about": "“Placental human neurokinin B precursor” (Perinatal Diagnostics Limited, priority 1999, dated 2011)", "origin": "cited, not measured here", "key": {"[1]": {"target": "NK1 receptor (Homo sapiens, UniProt P25103)", "sequence (P25103 whole entry, species assumed)": "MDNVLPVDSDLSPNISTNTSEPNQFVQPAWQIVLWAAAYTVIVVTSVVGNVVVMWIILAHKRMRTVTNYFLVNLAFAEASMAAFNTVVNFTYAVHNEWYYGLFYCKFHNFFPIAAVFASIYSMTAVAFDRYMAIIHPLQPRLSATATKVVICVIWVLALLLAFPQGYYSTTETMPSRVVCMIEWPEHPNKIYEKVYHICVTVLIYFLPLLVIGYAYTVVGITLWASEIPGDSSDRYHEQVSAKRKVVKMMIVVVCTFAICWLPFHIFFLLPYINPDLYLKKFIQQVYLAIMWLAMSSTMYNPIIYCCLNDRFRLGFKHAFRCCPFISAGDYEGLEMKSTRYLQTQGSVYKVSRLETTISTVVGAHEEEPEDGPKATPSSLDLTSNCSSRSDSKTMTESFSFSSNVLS"}, "[2]": {"target": "T1, NK2 receptors (Homo sapiens, UniProt P21452)", "T1 sequence (P21452 1-398)": "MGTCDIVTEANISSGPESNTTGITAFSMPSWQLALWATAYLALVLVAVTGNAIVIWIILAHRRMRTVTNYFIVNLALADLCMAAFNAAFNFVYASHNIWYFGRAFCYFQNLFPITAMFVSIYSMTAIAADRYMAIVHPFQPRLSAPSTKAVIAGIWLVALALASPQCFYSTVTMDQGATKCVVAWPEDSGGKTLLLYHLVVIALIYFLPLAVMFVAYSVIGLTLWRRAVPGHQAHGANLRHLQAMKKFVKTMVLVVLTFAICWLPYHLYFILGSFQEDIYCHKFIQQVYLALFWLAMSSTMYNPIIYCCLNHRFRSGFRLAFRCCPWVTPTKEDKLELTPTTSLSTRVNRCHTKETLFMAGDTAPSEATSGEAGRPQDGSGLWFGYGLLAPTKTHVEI"}, "[3]": {"conditions": "dog, in vivo"}, "[4]": {"target": "T2, NK3 receptor (Homo sapiens, UniProt P29371)", "T2 sequence (P29371 1-465)": "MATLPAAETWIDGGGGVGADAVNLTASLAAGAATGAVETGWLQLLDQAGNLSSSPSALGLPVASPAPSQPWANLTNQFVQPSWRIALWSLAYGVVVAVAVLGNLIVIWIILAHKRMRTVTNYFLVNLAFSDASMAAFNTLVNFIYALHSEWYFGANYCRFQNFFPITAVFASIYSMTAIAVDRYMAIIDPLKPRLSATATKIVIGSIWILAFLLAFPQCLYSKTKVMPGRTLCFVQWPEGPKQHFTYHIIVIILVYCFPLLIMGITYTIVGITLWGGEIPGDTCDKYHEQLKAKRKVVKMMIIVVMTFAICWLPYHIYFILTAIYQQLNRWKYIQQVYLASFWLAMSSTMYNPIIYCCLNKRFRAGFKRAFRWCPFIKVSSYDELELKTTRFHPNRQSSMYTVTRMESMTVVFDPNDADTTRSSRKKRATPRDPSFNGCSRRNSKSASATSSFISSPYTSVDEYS"}, "[5]": {"conditions": "intravenous injections, guinea pigs"}, "[6]": {"system": "hepatic portal vein"}, "[7]": {"system": "mesenteric vascular bed"}, "[8]": {"conditions": "intravenous infusion, rats"}}, "note": "Like-named read-outs stand apart in the source and are kept apart here. Ends that are not written are not given here."}
{"molecule": "CN(Cc1ccccc1)C(=O)[C@H](Cc1ccc2ccccc2c1)NC(=O)[C@@H]1C[C@@H](O)CN1C(=O)c1cn(C)c2ccccc12", "note": "[FK 888]", "values": [{"measurement": "affinity for the NK1 receptor", "setting": "[1]", "result": "high affinity"}]}
{"molecule": "CC(=O)NC1(c2ccccc2)CCN(CC[C@H](CN(C)C(=O)c2ccccc2)c2ccc(Cl)c(Cl)c2)CC1", "note": "[SR 48968]", "values": [{"measurement": "affinity and selectivity for NK2 receptors", "setting": "[2]", "result": "high affinity and selectivity"}]}
{"molecule": "neurokinin A (HKTDSFVGLM-NH2; ends and bridges not checked; UniProt P20366 98-107, looked up) [substance K, tachykinin designated substance K or neurokinin A]", "values": [{"measurement": "effect on heart rate", "setting": "[3]", "result": "slow down the heart rate"}]}
{"molecule": "neurokinin B [NKB]", "values": [{"measurement": "potency rank among tachykinins at the NK3 receptor", "setting": "[4]", "result": "most potent member of the family"}, {"measurement": "effect on blood pressure", "setting": "[5]", "result": "dose related hypertension"}, {"measurement": "contraction, potency rank among neurokinins", "setting": "[6]", "result": "most potent neurokinin"}, {"measurement": "vasoconstriction, potency rank among neurokinins", "setting": "[7]", "result": "most potent neurokinin to cause vasoconstriction"}, {"measurement": "effect on blood pressure", "setting": "[8]", "result": "increase in blood pressure"}]}
{"molecule": "substance P (RPKPQQFFGLM-NH2; ends and bridges not checked; UniProt P20366 58-68, looked up)", "values": [{"measurement": "effect on heart rate", "setting": "[3]", "result": "slow down the heart rate"}]}
